{"source": "patent US4385060A", "about": "“Penicillins” (Beecham Group Limited, priority 1979, dated 1983)", "key": {"[1]": {"assay": "Oral administration as syrup equivalent to 400 mg ticarcillin, phenyl vs p-tolyl ester (data of British Pat. No. 1,455,529)", "type": "in vivo, man", "from_the_text": "The improved bioavailability can also be seen from the individual mean serum concentration figures in table 1. […] This can be seen by the comparison with the phenyl ester and for convenience the data from specification No. 1,455,529 is repeated in table 3 below:\n(Administration as syrup containing equivalent"}, "[2]": {"details": "in words; cited from earlier work"}, "[3]": {"assay": "Oral absorption in fasting human volunteers (syrup): serum ticarcillin, AUC and urinary excretion by bio-assay, Experiments A-D", "type": "in vivo", "description": "To obtain the results shown in table 1, the two esters of ticarcillin were each given to a panel of fasting human volunteers in a syrup formulation in an amount equivalent to provide either 200 or 400 mg (as stated in table 1) of the free ticarcillin after the expected in vivo hydrolysis. Periodic blood samples were taken from the volunteers and each assayed for ticarcillin content by a standard bio-assay technique. The urine excreted by each volunteer within the 6 hours following administration was also collected and assayed for the free ticarcillin. All three parameters (viz the urinary excretion level, the peak serum concentration achieved and the total area under the curve when the serum concentration is plotted against time) are indications of the minimum degree to which the penicillin ester has been absorbed after oral administration and then hydrolysed in vivo."}, "[4]": {"assay": "Intact ester in blood and urine after oral administration to human volunteers", "type": "in vivo", "details": "urine, read-out: ester present in urine"}}, "note": "Entries after “also recorded” stand apart in the source; their conditions may differ."}
{"smiles": "Cc1ccc(OC(=O)C(C(=O)N[C@@H]2C(=O)N3[C@@H]2SC(C)(C)[C@@H]3C(=O)O)c2ccsc2)cc1", "note": "(stereo partly drawn) [p-tolyl, α-para-tolyl mono-ester of α-carboxy-3-thienylmethyl penicillin]", "values": [{"measurement": "oral absorption compared to the ortho ester", "setting": "[1]; in words, p-tolyl vs α-ortho ester", "result": "much less well absorbed"}, {"measurement": "statistical significance of differences in mean serum concentrations", "setting": "[1]; p-tolyl vs phenyl ester, table 3", "result": "not statistically significant"}, {"measurement": "oral absorption in man", "setting": "[2]", "result": "high degree of oral absorption in man"}]}
{"smiles": "Cc1ccccc1OC(=O)C(C(=O)N[C@@H]1C(=O)N2[C@@H]1SC(C)(C)[C@@H]2C(=O)O)c1ccsc1", "note": "(stereo partly drawn) [o-tolyl, 6β-[2-(2'-methylphenoxycarbonyl)-2-thien-3'-ylacetamido]penicillanic acid]", "values": [{"measurement": "urinary recovery of ticarcillin compared to the phenyl ester", "setting": "[3]; in words", "result": "greater urinary recovery"}, {"measurement": "bioavailability of ticarcillin after oral administration compared to the phenyl ester", "setting": "[3]; in words, AUC, listed as α-ortho-tolyl ester", "result": "considerably greater; also recorded: two- to three-fold greater"}, {"measurement": "bioavailability as measured by AUC higher than for the phenyl ester", "setting": "[3]; o-tolyl vs phenyl ester, oral, man, overall", "result": "120-220%"}, {"measurement": "dose excreted at 6 h", "setting": "[4]", "result": "~2", "unit": "%"}]}
{"smiles": "CC1(C)S[C@@H]2[C@H](NC(=O)C(C(=O)Oc3ccccc3)c3ccsc3)C(=O)N2[C@H]1C(=O)O", "note": "(stereo partly drawn) [phenyl, α-phenyl ester of α-carboxy-3-thienylmethyl penicillin, reference compound]", "values": [{"measurement": "dose excreted at 6 h", "setting": "[4]", "result": "~1", "unit": "%"}]}
